Measurements reported in patent publication US6323001A, “Increasing the trehalose content of organisms by transforming them with combinations of the structural genes for trehalose synthase” (BTG International Ltd., priority 1994, dated 2001).
Where two headings read alike, the source gives them in different places.

How the values were obtained:
[1] = target: T1, 93 and 86 kDa long chain fragments of truncated trehalose synthase (Saccharomyces cerevisiae, UniProt P38427); assay: Labelling of truncated trehalose synthase with [14C]-NEM; format: binding, baker's yeast; settings: for NEM entered the long chain fragments: 32 μM ethyl-labelled NEM; for NEM incorporated into long chain fragments at complete loss of Tre6Pase: per mole of truncated trehalose synthase, ring- and ethyl-labelled NEM
T1 construct: 93 kDa band may also hold TPS2 fragment
Experimental: (§1) In one experiment, 2.0 μl of 2.4 mM ethyl-labelled NEM was mixed with 150 μl of gel-filtered enzyme and incubated at 23° C. Samples (10 μl) taken at various times up to 190 min were mixed with 60 μl of Laemmli sample buffer (the mercapto-ethanol in this buffer should destroy residual NEM), boiled for 5 min and subjected to SDS-PAGE. At closely similar times (and also at 23 h) other samples (10 μl) were mixed with 100 μl (for Tre6P synthase) or 700 μl (for Tre6Pase) of 5 mg BSA/ml 25 mM HEPES pH 7.0 containing 2 mM MgCl2, 1 mM EDTA, 0.2 M NaCl and 1 mM dithiothreitol (the dithiothreitol should destroy residual NEM) and assayed for Tre6P synthase and Tre6Pase.
After electrophoresis, the upper (cathode) buffer, containing most of the added radioactivity, was completely removed before disassembling the apparatus. The gel was then fixed, stained and destained as described by Laemmli [(1970) Nature, London 227, 680-685] and dried. […] The Coomassie blue stained bands and adjacent, empty areas (as blanks) were cut out of the dried gel (in later experiments, they were cut from undried gels), broken up and extracted overnight with 1 ml of 5% SDS in pre-blanked scintillation vials. Then 10 ml of a toluene/Triton X100-based scintillant was added, and the tubes were repeatedly counted using a wide energy window to minimise quench effects. After 10 h constant counting levels were reached. Excess radioactivity was calculated by subtracting a blank value obtained from empty regions of the gel.

[2] = target: T2, Tre6P synthase activity of truncated trehalose synthase (Saccharomyces cerevisiae, UniProt Q00764); assay: Tre6P synthase assay of truncated trehalose synthase; format: biochemical, baker's yeast
T2 construct: contained the 57 kDa short chain; made in house; host or cells: baker's yeast (native enzyme, proteolytically truncated during purification)
T2 sequence (Q00764 1-495): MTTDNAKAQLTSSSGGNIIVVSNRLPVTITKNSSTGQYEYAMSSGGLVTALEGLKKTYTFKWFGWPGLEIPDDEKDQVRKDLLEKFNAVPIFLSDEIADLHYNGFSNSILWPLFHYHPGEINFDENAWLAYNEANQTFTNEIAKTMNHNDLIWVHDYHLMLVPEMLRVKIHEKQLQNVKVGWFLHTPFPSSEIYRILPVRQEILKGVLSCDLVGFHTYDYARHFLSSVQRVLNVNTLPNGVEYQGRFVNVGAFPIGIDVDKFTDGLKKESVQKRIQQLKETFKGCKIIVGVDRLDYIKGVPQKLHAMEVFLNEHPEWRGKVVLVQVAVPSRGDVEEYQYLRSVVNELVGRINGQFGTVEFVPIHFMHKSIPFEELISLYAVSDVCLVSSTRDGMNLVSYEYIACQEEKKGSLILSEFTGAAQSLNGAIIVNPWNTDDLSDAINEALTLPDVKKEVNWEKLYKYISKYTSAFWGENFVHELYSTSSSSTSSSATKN
Experimental: (§2) With microbial materials, Tre6Pase and Tre6P synthase standard assays and other kinetic measurements were made as described by Londesborough & Vuorio [(1991) loc. cit.] except that the standard Tre6P synthase assay mixture contained 5 mM F6P unless stated otherwise.
(§3) Truncated trehalose synthase containing the short (57 kDa) chain and the 86 and 93 kDa long chain fragments was prepared according to the method of Londesborough & Vuorio (1991) loc. cit.] for proteolytically activated TPS/P complex. Tre6P synthase and Tre6Pase activities were assayed as described by Londesborough & Vuorio [(1991) loc. cit.]. [N-ethyl-1-^14C]-maleimide (ethyl-labelled NEM; 40 mCi/mmol) was NEC-454 from New England Nuclear. N-ethyl-[2,3-^14 C]-maleimide (ring-labelled NEM; 6 mCi/mmol) was CFA 293 from Amersham International. Both were obtained as solutions in n-pentane and the manufacturer's stated specific activities were assumed to be correct. Unlabelled N-ethyl-maleimide (NEM) was E-3876 from Sigma. It was dissolved in 25 mM HEPES pH 7.0 immediately before use and standardized by absorption measurements at 305 nm, assuming an E^mM of 0.62.
(§4) Truncated trehalose synthase was prepared as described by Londesborough & Vuorio [(1991) loc. cit.] and contained the 57 kDa short chain and 86 and 93 kDa fragments of the long chain. Intact trehalose synthase was prepared as in Example 1. Kinetic assays were done at 30° C. as described in General Methods and Materials.

[3] = target: Tre6Pase activity of truncated trehalose synthase (Saccharomyces cerevisiae, UniProt P31688); assay: Tre6Pase assay of truncated trehalose synthase; format: biochemical, baker's yeast
Experimental: as §2, §3, §1, §4

[4] = target: T3, Tre6P synthase activity of intact trehalose synthase (Saccharomyces cerevisiae, UniProt Q00764); assay: Tre6P synthase assay of intact trehalose synthase; format: biochemical, baker's yeast; settings: 5 or 2.5 mM; 1 mM F6P at 1.3 mM phosphate
T3 construct: Intact trehalose synthase was purified from commercial baker's yeast; made in house; host or cells: commercial baker's yeast (native enzyme purified, not recombinant)
Experimental: as §2
Removal of the N-terminal 325 or so amino acids from the 123 kDa long chain of intact trehalose synthase by treatment with trypsin in vitro produces an enzyme with catalytic properties like those of the truncated enzyme purified by Londesborough & Vuorio [(1991) loc. cit.]. In one experiment intact trehalose synthase (0.28 Tre6P synthase units, ≈9.4 μg) was incubated with or without 0.5 μg of trypsin at 30° C. in 250 μl of 13 mM HEPES pH 7.0 containing 1 mM MgCl2, 0.5 mM EDTA, 0.5 mM dithiothreitol, 0.2 M NaCl and 0.5 mM benzamidine. Its Tre6P synthase activity was determined at intervals using standard assay mixtures (containing 5 mM F6P) containing no or 4 mM K phosphate pH 6.8, and samples were prepared for SDS-PAGE analysis immediately before and 48 min after addition of the trypsin.
as §4

extract of X2180 yeast = assay: Synthesis of [14C]-trehalose from [U-14C]-G6P by extract of wild-type yeast; format: biochemical, S. cerevisiae; settings: 2.5 mM ADPG

T3 sequence (P31688 whole entry, one chain of several): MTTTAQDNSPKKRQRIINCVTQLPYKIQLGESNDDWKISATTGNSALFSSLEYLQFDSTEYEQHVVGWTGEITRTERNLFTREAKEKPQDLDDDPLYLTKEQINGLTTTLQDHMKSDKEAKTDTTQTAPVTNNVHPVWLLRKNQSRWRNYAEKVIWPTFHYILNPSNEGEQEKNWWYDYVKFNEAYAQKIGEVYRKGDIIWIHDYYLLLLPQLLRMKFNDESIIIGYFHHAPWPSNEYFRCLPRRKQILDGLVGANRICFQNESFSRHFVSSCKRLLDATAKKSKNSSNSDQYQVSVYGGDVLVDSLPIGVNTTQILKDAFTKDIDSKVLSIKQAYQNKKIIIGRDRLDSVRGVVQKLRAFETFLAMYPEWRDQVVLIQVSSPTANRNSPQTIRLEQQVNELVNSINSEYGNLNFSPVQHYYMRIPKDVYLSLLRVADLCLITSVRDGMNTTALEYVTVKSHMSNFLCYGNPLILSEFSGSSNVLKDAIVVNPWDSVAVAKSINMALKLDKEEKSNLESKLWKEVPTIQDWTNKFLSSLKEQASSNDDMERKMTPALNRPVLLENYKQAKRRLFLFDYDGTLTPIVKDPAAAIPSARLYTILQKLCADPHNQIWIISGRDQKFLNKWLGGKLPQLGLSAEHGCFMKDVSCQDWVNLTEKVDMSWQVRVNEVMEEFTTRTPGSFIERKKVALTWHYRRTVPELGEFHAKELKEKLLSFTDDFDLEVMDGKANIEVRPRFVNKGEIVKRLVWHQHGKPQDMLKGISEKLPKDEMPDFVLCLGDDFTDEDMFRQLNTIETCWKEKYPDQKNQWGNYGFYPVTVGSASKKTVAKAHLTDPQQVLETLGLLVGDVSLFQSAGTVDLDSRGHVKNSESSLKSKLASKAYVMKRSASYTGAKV
T3 sequence (P38427 whole entry, one chain of several, further chain): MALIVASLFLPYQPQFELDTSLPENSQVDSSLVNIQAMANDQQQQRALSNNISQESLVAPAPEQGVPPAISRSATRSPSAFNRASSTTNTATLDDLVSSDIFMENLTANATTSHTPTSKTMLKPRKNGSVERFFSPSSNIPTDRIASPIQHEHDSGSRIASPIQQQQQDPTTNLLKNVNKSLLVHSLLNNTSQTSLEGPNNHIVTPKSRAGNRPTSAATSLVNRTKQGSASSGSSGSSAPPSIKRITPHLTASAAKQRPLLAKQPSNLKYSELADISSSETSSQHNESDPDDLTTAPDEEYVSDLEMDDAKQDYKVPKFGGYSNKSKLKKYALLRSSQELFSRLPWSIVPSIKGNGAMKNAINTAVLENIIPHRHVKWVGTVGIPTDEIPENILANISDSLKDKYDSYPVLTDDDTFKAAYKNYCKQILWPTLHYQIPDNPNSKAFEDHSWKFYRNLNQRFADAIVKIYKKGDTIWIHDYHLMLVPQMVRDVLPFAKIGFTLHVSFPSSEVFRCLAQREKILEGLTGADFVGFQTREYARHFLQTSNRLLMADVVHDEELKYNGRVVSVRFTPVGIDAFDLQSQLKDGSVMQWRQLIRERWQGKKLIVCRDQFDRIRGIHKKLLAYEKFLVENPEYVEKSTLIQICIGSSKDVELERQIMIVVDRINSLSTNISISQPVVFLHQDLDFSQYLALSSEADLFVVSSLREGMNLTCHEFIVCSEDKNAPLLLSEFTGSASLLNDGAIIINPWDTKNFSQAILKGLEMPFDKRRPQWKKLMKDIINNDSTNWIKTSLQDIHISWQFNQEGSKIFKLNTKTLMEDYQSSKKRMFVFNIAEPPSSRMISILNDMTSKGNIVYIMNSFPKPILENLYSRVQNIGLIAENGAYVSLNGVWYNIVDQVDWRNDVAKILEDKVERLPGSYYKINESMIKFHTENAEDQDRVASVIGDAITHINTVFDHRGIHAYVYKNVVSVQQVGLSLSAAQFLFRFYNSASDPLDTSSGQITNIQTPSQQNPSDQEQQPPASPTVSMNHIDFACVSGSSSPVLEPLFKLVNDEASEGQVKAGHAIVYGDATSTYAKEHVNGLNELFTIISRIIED
Tre6Pase activity of truncated trehalose synthase, sequence (P31688 whole entry, one chain of several, the tested form may be a part): as the sequence (P31688 whole entry, one chain of several) above
Tre6Pase activity of truncated trehalose synthase, sequence (P38427 336-1098, one chain of several, further chain): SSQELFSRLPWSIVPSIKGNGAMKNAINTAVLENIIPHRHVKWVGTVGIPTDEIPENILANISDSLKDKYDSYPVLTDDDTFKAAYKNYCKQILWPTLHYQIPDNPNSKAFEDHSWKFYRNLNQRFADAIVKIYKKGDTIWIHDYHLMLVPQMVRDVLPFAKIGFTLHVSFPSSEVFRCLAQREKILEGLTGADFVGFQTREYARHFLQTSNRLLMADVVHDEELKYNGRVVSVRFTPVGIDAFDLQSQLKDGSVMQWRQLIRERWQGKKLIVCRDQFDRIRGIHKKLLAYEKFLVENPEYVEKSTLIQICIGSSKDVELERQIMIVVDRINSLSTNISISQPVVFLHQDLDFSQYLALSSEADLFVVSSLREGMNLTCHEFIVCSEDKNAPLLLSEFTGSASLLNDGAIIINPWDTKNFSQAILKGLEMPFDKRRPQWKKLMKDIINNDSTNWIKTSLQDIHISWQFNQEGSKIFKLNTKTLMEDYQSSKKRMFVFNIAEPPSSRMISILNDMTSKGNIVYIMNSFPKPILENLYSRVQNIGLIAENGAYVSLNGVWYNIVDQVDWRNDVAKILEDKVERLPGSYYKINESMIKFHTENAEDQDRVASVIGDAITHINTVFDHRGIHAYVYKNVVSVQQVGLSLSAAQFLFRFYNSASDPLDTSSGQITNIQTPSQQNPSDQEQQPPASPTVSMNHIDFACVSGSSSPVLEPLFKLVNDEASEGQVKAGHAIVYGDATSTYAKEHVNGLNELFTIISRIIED
T1 sequence (P38427 336-1098): as the sequence (P38427 336-1098, one chain of several, further chain) above

CCN1C(=O)C=CC1=O [NEM, N-ethyl-maleimide]
NEM entered the long chain fragments ([1]; 10.5 min): 0.20 moles per mole (150 Kg) of enz
NEM entered the long chain fragments ([1]; 190 min): 0.32 moles per mole (150 Kg) of enz
NEM incorporated into long chain fragments at complete loss of Tre6Pase [1]: less than 1 mole
NEM incorporated into long chain fragments at complete loss of Tre6Pase ([1]; listed as 14C-N-ethylmaleimide): about 1 mole
inhibition at 1900 µM ([2]; 1.9 mM NEM, 24° C., about 0.17 mM dithiothreitol, read-out: loss of Tre6P synthase activity): ≤ 24%
inhibition at 32 µM ([3]; 0.175 h, read-out: initial Tre6Pase lost, 32 μM ethyl-labelled NEM, 23° C., 10.5 min): 30%
inhibition at 32 µM ([3]; 190 min, read-out: initial Tre6Pase lost, 32 μM ethyl-labelled NEM, 23° C., 190 min): 56%
inhibition at 1900 µM ([3]; read-out: loss of Tre6Pase activity, 1.9 mM NEM, 24° C., about 0.17 mM dithiothreitol): ≥ 98%

O=P(O)(O)OC[C@H]1O[C@@](CO)(OP(=O)(O)O)[C@@H](O)[C@@H]1O [fructose-2,6-bisphosphate]
inhibition of Tre6P synthase activity [4]: about 25%

O=P(O)(O)O[C@H]1O[C@H](CO)[C@@H](O)[C@H](O)[C@H]1O [glucose-1-phosphate]
inhibition of Tre6P synthase activity [4]: about 25%

O=C(COP(=O)(O)O)[C@@H](O)[C@H](O)[C@H](O)CO [Fructose-1-phosphate]
inhibition of Tre6P synthase activity [4]: about 25%

O=C(O)c1cc(SSc2ccc([N+](=O)[O-])c(C(=O)O)c2)ccc1[N+](=O)[O-] [DTNB, dithiodinitro-benzoate]
inhibition at 900 µM ([2]; 10 min, 0,9 mM DTNB, 10 min, read-out: Tre6P synthase lost): < 28%
inhibition at 900 µM ([3]; 10 min, read-out: Tre6Pase lost, 0,9 mM DTNB, 10 min): > 95%

Nc1ncnc2c1ncn2[C@@H]1O[C@H](COP(=O)(O)OP(=O)(O)O[C@H]2O[C@H](CO)[C@@H](O)[C@H](O)[C@H]2O)[C@@H](O)[C@H]1O [ADPG, adenosine 5'-diphosphoglucose]
effect on rate of appearance of radioactivity (extract of X2180 yeast): did not cause any significant increase

O=C(COP(=O)(O)O)[C@@H](O)[C@H](O)[C@H](O)COP(=O)(O)O [fructose-1,6-bisphosphate]
inhibition of Tre6P synthase activity [4]: about 25%
